Counter-ions that a name gives are not always drawn. Like-named read-outs stand apart in the source and are kept apart here.
How the values were obtained:
[1] = system: Alzheimer-type dementia patients
Method: Patient. […] After 11 months from the start of the donepezil hydrochloride administration, concomitant administration of sustained release tablets of sodium valproate (twice a day after breakfast and dinner with 200 mg tablet×2) was started.
Patient. […] After 35 months from the start of the donepezil hydrochloride administration, concomitant administration of sustained release tablets of sodium valproate (twice a day after breakfast and dinner with 200 mg tablet×2) was started.
Patient. […] Concomitant administration of sustained release tablets of sodium valproate (twice a day after breakfast and dinner with 200 mg tablet×2) was started 48 months after the start of the donepezil hydrochloride administration. […] Sustained release tablets of sodium valproate (200 mg tablet×3) were administered from eight months after the start of the concomitant administration.

Alzheimer-type dementia = details: donepezil hydrochloride alone; cited from earlier work
[2] = system: Alzheimer-type dementia patients; details: cited from earlier work; for Improving effect on the behavioral and psychological symptoms such as agitation: solely administered, Am. J. Geriatr. Psychiatry 2005

Structure (SMILES): COc1cc2c(cc1OC)C(=O)C(CC1CCN(Cc3ccccc3)CC1)C2 (stereo not drawn) [donepezil hydrochloride]
- Problem behaviors ([1]; Example 1 patient, donepezil alone 5 mg once a day, two months from start): did not subside
- Symptoms observed ([1]; Example 2 patient, donepezil alone 5 mg once a day, two months after start): symptoms of incontinentia and the like were observed
- Symptoms observed ([1]; Example 2 patient, donepezil alone, four months after start): visual hallucination, incontinentia, aggressive attitude and the like were observed
- Symptoms observed ([1]; Example 3 patient, donepezil alone 5 mg once a day, 15 months after start): dressing apraxia was observed
- Symptoms observed ([1]; Example 3 patient, donepezil alone, 23 months after start): visual hallucination, soliloquy, emotional attitude, dressing apraxia, and stereotypy were observed
- Symptoms observed ([1]; Example 3 patient, donepezil alone, 25 months after start): visual hallucination, delusion of persecution and the like
- Symptoms observed ([1]; Example 4 patient, donepezil alone 5 mg once a day, two months after start): visual hallucination was not observed, but they spoke only their events in the old days and showed stereotypy
- Inspection findings ([1]; Example 5 patient, donepezil alone 5 mg once a day, 24 months after start): atrophy of the hippocampus was marked
- Symptoms observed ([1]; Example 5 patient, donepezil alone, 41 months after start): refusal of oral administration of medicaments, soliloquy and dressing apraxia
- Cognitive disorder ([1]; Example 5 patient, donepezil alone, thirty nine months after start): advanced
- Duration of improving action against the cognitive symptoms (Alzheimer-type dementia): about one year at the longest
- Effect on the cognitive symptoms (Alzheimer-type dementia): certain effects for retarding onset or relieving of the cognitive symptoms

Structure (SMILES): CCCC(CCC)C(=O)[O-].[Na+] [sodium valproate]
- Improving effect on the behavioral and psychological symptoms such as agitation [2]: no improving effect

Structure (SMILES): CCCC(CCC)C(=O)O [valproic acid]
- Side reactions ([2]; general statement on valproic acid and a salt thereof): little side reactions such as sleepiness
- Improving effect on the behavioral and psychological symptoms such as agitation [2]: does not exhibit any improving effect
